Measurements: paper PMC12921513 (ACS Bio & Med Chem Au, 2025)
Values joined by “and” are separate entries in the source; they are usually repeats but may differ in a detail not shown here. Identical values can stand only once.

Test system: SaFabI
Test: SaFabI fluorescence intensity counter-screen
Settings: 30 μM inhibitor, 200 nM enzyme

Compound | SaFabI % inhibition, 30 μM
CS(=O)(=O)c1ccc2nc(NC(=O)NCc3nc(-c4ccc(Br)cc4)c[nH]3)sc2c1 [compound 2] | 21.0%
O=C(NCc1nc(-c2ccc(Br)cc2)c[nH]1)Nc1nc2cc(Cl)ccc2s1 [compound 3] | 9.8%
O=C(NCc1nc(-c2ccc(Br)cc2)c[nH]1)Nc1nc2cccc(C(F)(F)F)c2s1 [compound 4] | 18%
Oc1cc(Cl)ccc1Oc1ccc(Cl)cc1Cl [triclosan, reference compound] | 99% and 99.9%
